This is an account of results in ChEMBL document CHEMBL3137667, “[Drug-induced liver injury; fourteenth updated edition of the bibliographic database of liver injuries and related drugs]” (Gastroenterol Clin Biol, 2004).

Data set [1] in a line: Highest frequency of moderate liver toxicity observed during clinical trials, expressed as a percentage. [column '% BIOL' in source]. The note with it: human.
Data set [2] is described as follows: Highest frequency of acute liver toxicity observed during clinical trials, expressed as a percentage. [column '% AIGUE' in source]. The note with it: human.
For data set [3] the following is noted: human, serum.
For data set [4] the following is noted: human, serum. The source holds these as a separate data set.
For data set [5] the following is noted: human.
For data set [6] the following is noted: human. The source holds these as a separate data set.
For data set [7] the following is noted: human. The source holds these as a separate data set.
For data set [8] the following is noted: human, serum, 4383 h.
For data set [9] the following is noted: human. This is another data set of the same source.
For data set [10] the following is noted: human. This is another data set of the same source.
The conditions of data set [11]: human. This is another data set of the same source.
For data set [12] the following is noted: human. The source holds these as a separate data set.
For data set [13] the following is noted: human. This is another data set of the same source.
The conditions of data set [14]: human. The source holds these as a separate data set.
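Throughout, for Hepatotoxicity (association with vascular disease): count of indexed literature references reporting vascular liver injury in humans, e.g. peliosis hepatitis, hepatic veno-occlusive disease or Budd-Chiari syndrome.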
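Throughout, for Hepatotoxicity (benign tumour): value is a count of indexed literature references citing a benign tumour confirmed by histopathology.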
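Throughout, for Hepatotoxicity (choleostasis): human cholestatic liver injury, shown by histopathology or by peak ALT or AST elevation over alkaline phosphatase ratio below 2, value counts indexed literature reports.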
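Throughout, for Hepatotoxicity (chronic liver disease): chronic liver injury confirmed by histopathology or persistently raised serum aminotransferase activity beyond 6 months, value given as the count of indexed literature references.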
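Throughout, for Hepatotoxicity (cirrhosis): value is a count of indexed literature references reporting cirrhosis confirmed by histopathology.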
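Throughout, for Hepatotoxicity (cytolytic): human cytolytic liver injury, shown by histopathology or by a ratio above 5 of peak ALT or AST elevation to alkaline phosphatase elevation, value counts indexed references.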
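Throughout, for Hepatotoxicity (granulomatous hepatitis): value is a count of indexed literature references reporting granulomatous liver disease confirmed by histopathology.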
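Throughout, for Hepatotoxicity (malignant tumour): malignant tumour confirmed by histopathology, value gives the count of indexed literature references reporting it.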
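Throughout, for Hepatotoxicity (severe hepatitis): human clinical data: severe hepatitis, meaning potentially life-threatening liver failure or clinically observed cases, the value counts how many indexed literature references report it.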
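Throughout, for Hepatotoxicity (steatosis): steatosis confirmed by histopathology, value is the count of indexed references.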

On to `CO[C@@H]1C[C@](C)(O)Cc2cc3c(c(O)c21)C(=O)c1c(O)cc2c(c1C3=O)O[C@@H]1O[C@@]2(C)[C@H](O)[C@@H](N(C)C)[C@@H]1O` [MENOGARIL], for which the “Hepatotoxicity (moderate)” value is listed as 16.7% in data set [1] and 4 in data set [3]. Further, the figures for the “Hepatotoxicity (acute)” value in data set [2] and in [4] were 0% and 0, respectively. In data set [5], the “Hepatotoxicity (cytolytic)” value amounted to 0. The “Hepatotoxicity (choleostasis)” value in [6] stood at 0. For the same compound, in data set [7], the “Hepatotoxicity (severe hepatitis)” value was found to be 0. For the same compound, the “Hepatotoxicity (chronic liver disease)” value in data set [8] was 0. In [9], the “Hepatotoxicity (cirrhosis)” value came to 0. Moreover, the “Hepatotoxicity (granulomatous hepatitis)” value in data set [10] was found to be 0. Also, the “Hepatotoxicity (association with vascular disease)” value in data set [11] is on record as 0. Further, in data set [12], the “Hepatotoxicity (steatosis)” value is recorded as 0. Besides, the “Hepatotoxicity (malignant tumour)” value in [13] stood at 0. In addition, in data set [14], the “Hepatotoxicity (benign tumour)” value came to 0.
As for `CN1CCC(=C2c3ccccc3CC(=O)c3sccc32)CC1` [KETOTIFEN], the “Hepatotoxicity (moderate)” value amounted to 0% in data set [1] and 0 in [3]. Further, the “Hepatotoxicity (acute)” value stood at 0% in [2] and 1 in [4]. Moreover, in [5], the “Hepatotoxicity (cytolytic)” value is 0. Also, in data set [6], the “Hepatotoxicity (choleostasis)” value is 0. Moreover, the “Hepatotoxicity (severe hepatitis)” value in [7] is 0. The “Hepatotoxicity (chronic liver disease)” value in data set [8] was 0. Further, in data set [9], the “Hepatotoxicity (cirrhosis)” value turned out to be 0. For the same compound, the “Hepatotoxicity (granulomatous hepatitis)” value in data set [10] stood at 0. Also, in data set [11], the “Hepatotoxicity (association with vascular disease)” value is recorded as 0. Besides, the “Hepatotoxicity (steatosis)” value in data set [12] amounted to 0. In addition, the “Hepatotoxicity (malignant tumour)” value in data set [13] came to 0. In addition, the “Hepatotoxicity (benign tumour)” value in [14] was found to be 0.
Consider `CC(C)(Oc1ccc(Cl)cc1)C(=O)NC(=O)NCN1CCOCC1` [PLAFIBRIDE], for which the “Hepatotoxicity (moderate)” value in [1] is given as 20%; in [3] it was 1. Moreover, the “Hepatotoxicity (acute)” value in data set [2] stood at 0%; in data set [4], 0. Also, the “Hepatotoxicity (cytolytic)” value in data set [5] amounted to 0. The “Hepatotoxicity (choleostasis)” value in data set [6] stood at 0. The “Hepatotoxicity (severe hepatitis)” value in data set [7] was found to be 0. Moreover, in data set [8], the “Hepatotoxicity (chronic liver disease)” value was 0. Further, in data set [9], the “Hepatotoxicity (cirrhosis)” value worked out at 0. Also, in data set [10], the “Hepatotoxicity (granulomatous hepatitis)” value was 0. Moreover, the “Hepatotoxicity (association with vascular disease)” value in data set [11] turned out to be 0. For the same compound, in data set [12], the “Hepatotoxicity (steatosis)” value is recorded as 0. The “Hepatotoxicity (malignant tumour)” value in data set [13] is on record as 0. The “Hepatotoxicity (benign tumour)” value in [14] was 0.
With `CCCCC(C)(O)C/C=C/[C@H]1[C@H](O)CC(=O)[C@@H]1CCCCCCC(=O)OC` (stereo partly drawn) [MISOPROSTOL], the “Hepatotoxicity (moderate)” value came out at 16.7% in data set [1] and 6 in data set [3]. The “Hepatotoxicity (acute)” value in data set [2] amounted to 0%; in data set [4], 0. Further, in data set [5], the “Hepatotoxicity (cytolytic)” value was 0. Also, the “Hepatotoxicity (choleostasis)” value in data set [6] worked out at 0. Further, in [7], the “Hepatotoxicity (severe hepatitis)” value is reported as 0. In addition, the “Hepatotoxicity (chronic liver disease)” value in data set [8] is listed as 0. In addition, in [9], the “Hepatotoxicity (cirrhosis)” value was determined as 0. Besides, the “Hepatotoxicity (granulomatous hepatitis)” value in [10] came out at 0. The “Hepatotoxicity (association with vascular disease)” value in data set [11] stood at 0. In addition, the “Hepatotoxicity (steatosis)” value in data set [12] was 0. Also, the “Hepatotoxicity (malignant tumour)” value in data set [13] is 0. In addition, the “Hepatotoxicity (benign tumour)” value in data set [14] worked out at 0.
With `CCOC(OCC)C(=O)OCC(=O)[C@]1(O)Cc2c(O)c3c(c(O)c2[C@@H](O[C@H]2C[C@H](N)[C@H](O)[C@H](C)O2)C1)C(=O)c1c(OC)cccc1C3=O` [DETORUBICIN], the “Hepatotoxicity (moderate)” value in [1] came to 9.4%; in [3], 2. Further, the entries for the “Hepatotoxicity (acute)” value in data set [2] and in [4] were 0% and 0, respectively. In data set [5], the “Hepatotoxicity (cytolytic)” value was 0. Further, the “Hepatotoxicity (choleostasis)” value in [6] was 0. Moreover, the “Hepatotoxicity (severe hepatitis)” value in data set [7] is 0. Besides, the “Hepatotoxicity (chronic liver disease)” value in data set [8] is 0. For the same compound, in data set [9], the “Hepatotoxicity (cirrhosis)” value turned out to be 0. For the same compound, in [10], the “Hepatotoxicity (granulomatous hepatitis)” value was 0. For the same compound, in data set [11], the “Hepatotoxicity (association with vascular disease)” value is reported as 0. Also, the “Hepatotoxicity (steatosis)” value in data set [12] came out at 0. The “Hepatotoxicity (malignant tumour)” value in data set [13] is 0. Moreover, the “Hepatotoxicity (benign tumour)” value in [14] is given as 0.
Turning to POLOXAMER, the “Hepatotoxicity (moderate)” value was determined as 7.7% in data set [1] and 1 in data set [3]. Moreover, the “Hepatotoxicity (acute)” value in data set [2] worked out at 0%; in [4] it was 0. For the same compound, the “Hepatotoxicity (cytolytic)” value in [5] was 0. Moreover, the “Hepatotoxicity (choleostasis)” value in data set [6] came to 0. Besides, the “Hepatotoxicity (severe hepatitis)” value in data set [7] was determined as 0. The “Hepatotoxicity (chronic liver disease)” value in data set [8] amounted to 0. Further, in [9], the “Hepatotoxicity (cirrhosis)” value was 0. Also, the “Hepatotoxicity (granulomatous hepatitis)” value in [10] is reported as 0. In addition, the “Hepatotoxicity (association with vascular disease)” value in [11] was determined as 0. Also, the “Hepatotoxicity (steatosis)” value in [12] worked out at 0. In addition, the “Hepatotoxicity (malignant tumour)” value in [13] is 0. In data set [14], the “Hepatotoxicity (benign tumour)” value was 0.
Turning to `CCN(CC)C(=O)N1CCN(C)CC1` [DIETHYLCARBAMAZINE], the “Hepatotoxicity (moderate)” value in data set [1] was determined as 0%; in data set [3], 1. Besides, the “Hepatotoxicity (acute)” value in data set [2] is 0%; in data set [4] it was 0. Further, the “Hepatotoxicity (cytolytic)” value in [5] amounted to 0. Besides, in data set [6], the “Hepatotoxicity (choleostasis)” value is given as 0. In [7], the “Hepatotoxicity (severe hepatitis)” value is reported as 0. Further, the “Hepatotoxicity (chronic liver disease)” value in [8] amounted to 0. In addition, in data set [9], the “Hepatotoxicity (cirrhosis)” value worked out at 0. Besides, in [10], the “Hepatotoxicity (granulomatous hepatitis)” value was found to be 0. In addition, the “Hepatotoxicity (association with vascular disease)” value in [11] was determined as 0. Moreover, the “Hepatotoxicity (steatosis)” value in data set [12] amounted to 0. For the same compound, in data set [13], the “Hepatotoxicity (malignant tumour)” value turned out to be 0. In addition, in data set [14], the “Hepatotoxicity (benign tumour)” value worked out at 0.
In the case of `CO[C@H]1O[C@@H]2O[C@@]3(C)CC[C@H]4[C@H](C)CC[C@@H]([C@H]1C)[C@@]24OO3`, the “Hepatotoxicity (moderate)” value in data set [1] amounted to 17%; in data set [3], 1. The entries for the “Hepatotoxicity (acute)” value in data set [2] and in [4] were 0% and 0, respectively. The “Hepatotoxicity (cytolytic)” value in [5] was found to be 0. In data set [6], the “Hepatotoxicity (choleostasis)” value amounted to 0. Also, the “Hepatotoxicity (severe hepatitis)” value in data set [7] was 0. In addition, the “Hepatotoxicity (chronic liver disease)” value in data set [8] is recorded as 0. The “Hepatotoxicity (cirrhosis)” value in [9] turned out to be 0. Besides, the “Hepatotoxicity (granulomatous hepatitis)” value in data set [10] came out at 0. The “Hepatotoxicity (association with vascular disease)” value in [11] stood at 0. Further, the “Hepatotoxicity (steatosis)” value in data set [12] is 0. Also, the “Hepatotoxicity (malignant tumour)” value in data set [13] was determined as 0. For the same compound, the “Hepatotoxicity (benign tumour)” value in data set [14] is 0.
For the compound `C[C@H](C(=O)O)c1ccc2oc(-c3ccc(F)cc3)nc2c1` [FLUNOXAPROFEN], the “Hepatotoxicity (moderate)” value in data set [1] was found to be 0%; in [3], 2. The “Hepatotoxicity (acute)” value in data set [2] was found to be 0%; in data set [4], 0. In addition, the “Hepatotoxicity (cytolytic)” value in [5] is listed as 0. The “Hepatotoxicity (choleostasis)” value in data set [6] was determined as 0. Moreover, the “Hepatotoxicity (severe hepatitis)” value in [7] stood at 0. In addition, in data set [8], the “Hepatotoxicity (chronic liver disease)” value is reported as 0. In [9], the “Hepatotoxicity (cirrhosis)” value is 0. Besides, in data set [10], the “Hepatotoxicity (granulomatous hepatitis)” value is 0. Also, the “Hepatotoxicity (association with vascular disease)” value in data set [11] is listed as 0. In addition, the “Hepatotoxicity (steatosis)” value in [12] is on record as 0. In addition, in data set [13], the “Hepatotoxicity (malignant tumour)” value is recorded as 0. For the same compound, the “Hepatotoxicity (benign tumour)” value in data set [14] came out at 0.
As to `O=[N+]([O-])c1ccc(O)c([N+](=O)[O-])c1` [2,4-DINITROPHENOL], the “Hepatotoxicity (moderate)” value is given as 0% in [1] and 0 in data set [3]. Moreover, the “Hepatotoxicity (acute)” value in data set [2] came to 0%; in data set [4], 3. Further, the “Hepatotoxicity (cytolytic)” value in [5] came to 0. Moreover, the “Hepatotoxicity (choleostasis)” value in [6] stood at 0. For the same compound, the “Hepatotoxicity (severe hepatitis)” value in data set [7] worked out at 2. The “Hepatotoxicity (chronic liver disease)” value in data set [8] is on record as 0. Further, in data set [9], the “Hepatotoxicity (cirrhosis)” value is 0. Moreover, in data set [10], the “Hepatotoxicity (granulomatous hepatitis)” value is 0. Further, the “Hepatotoxicity (association with vascular disease)” value in [11] amounted to 0. For the same compound, the “Hepatotoxicity (steatosis)” value in data set [12] was 0. Further, the “Hepatotoxicity (malignant tumour)” value in data set [13] amounted to 0. The “Hepatotoxicity (benign tumour)” value in data set [14] is 0.
For the compound `CC(=O)[C@@]1(O)CC[C@H]2[C@@H]3CCC4=CC(=O)CC[C@]4(C)[C@H]3CC[C@@]21C` [HYDROXYPROGESTERONE], the figures for the “Hepatotoxicity (moderate)” value in data set [1] and in [3] were 0% and 0, respectively. Besides, the figures for the “Hepatotoxicity (acute)” value in data set [2] and in data set [4] were 0% and 1, respectively. Further, in data set [5], the “Hepatotoxicity (cytolytic)” value was found to be 0. In data set [6], the “Hepatotoxicity (choleostasis)” value was 1. For the same compound, in data set [7], the “Hepatotoxicity (severe hepatitis)” value is 0. Moreover, in [8], the “Hepatotoxicity (chronic liver disease)” value is given as 0. Besides, the “Hepatotoxicity (cirrhosis)” value in data set [9] was 0. Also, in [10], the “Hepatotoxicity (granulomatous hepatitis)” value was determined as 0. In [11], the “Hepatotoxicity (association with vascular disease)” value is reported as 0. Besides, in data set [12], the “Hepatotoxicity (steatosis)” value turned out to be 0. For the same compound, the “Hepatotoxicity (malignant tumour)” value in [13] was 0. Moreover, the “Hepatotoxicity (benign tumour)” value in [14] is 0.
Take `COc1ccc(C(=O)Nc2ccccc2CCC2CCCCN2C)cc1` (stereo not drawn) [ENCAINIDE]: the “Hepatotoxicity (moderate)” value in data set [1] came out at 0%; in data set [3] it was 0. Further, the “Hepatotoxicity (acute)” value in [2] is given as 0%; in data set [4], 1. The “Hepatotoxicity (cytolytic)” value in data set [5] was 0. Further, the “Hepatotoxicity (choleostasis)” value in [6] is 0. In data set [7], the “Hepatotoxicity (severe hepatitis)” value amounted to 0. For the same compound, in data set [8], the “Hepatotoxicity (chronic liver disease)” value was 0. The “Hepatotoxicity (cirrhosis)” value in data set [9] amounted to 0. In addition, the “Hepatotoxicity (granulomatous hepatitis)” value in data set [10] was 0. For the same compound, the “Hepatotoxicity (association with vascular disease)” value in [11] was determined as 0. Besides, in data set [12], the “Hepatotoxicity (steatosis)” value came out at 0. Further, the “Hepatotoxicity (malignant tumour)” value in [13] is listed as 0. Besides, the “Hepatotoxicity (benign tumour)” value in data set [14] worked out at 0.
